Data reported in the NIST ThermoML archive (doi:10.1021/je700293s).

Experiment: xn = mol fraction of the nth substance listed
Settings: 101 kPa, Liquid, Capillary tube (Ostwald / Ubbelohde) method

CCCCCCCC(=O)OCC(COC(=O)CCCCCCC)OC(=O)CCCCCCC [1,2,3-propanetriol trioctanoate] + CCCCCCCCCC(=O)O
kinematic viscosity [m2/s]
Settings | 303.15 K | 313.15 K | 323.15 K | 333.15 K | 343.15 K | 353.15 K | 363.15 K
x2 = 0.4763 | 1.48e-05 | 1.05e-05 | 7.89e-06 | 6.15e-06 | 5.12e-06 | 4.13e-06 | 3.53e-06
x2 = 0.7423 | 1.29e-05 | 9.46e-06 | 7.16e-06 | 5.66e-06 | 4.57e-06 | 3.88e-06 | 3.18e-06
x2 = 0.8902 | 8.98e-06 | 7.83e-06 | 6.09e-06 | 4.9e-06 | 3.99e-06 | 3.24e-06 | 2.58e-06

CCCCCCCC/C=C\CCCCCCCC(=O)O [(Z)-9-octadecenoic acid] + CCCCCCCC/C=C\CCCCCCCC(=O)OCC(COC(=O)CCCCCCC/C=C\CCCCCCCC)OC(=O)CCCCCCC/C=C\CCCCCCCC
x1 = 0.758
Settings | kinematic viscosity [m2/s]
293.15 K | 6.78e-05
303.15 K | 4.49e-05
313.15 K | 3.13e-05
323.15 K | 2.28e-05
333.15 K | 1.62e-05
343.15 K | 1.26e-05
353.15 K | 1e-05
363.15 K | 8.22e-06

CCCCCCCC/C=C\CCCCCCCC(=O)O [(Z)-9-octadecenoic acid] + CCCCCCCCCC(=O)O
kinematic viscosity [m2/s]
Settings | 303.15 K | 313.15 K | 323.15 K | 333.15 K | 343.15 K | 353.15 K | 363.15 K
x2 = 0.3533 | 1.99e-05 | 1.45e-05 | 1.09e-05 | 8.52e-06 | 6.83e-06 | 5.63e-06 | 4.69e-06
x2 = 0.6211 | 1.45e-05 | 1.08e-05 | 8.25e-06 | 6.39e-06 | 5.17e-06 | 4.27e-06 | 3.36e-06

CCCCC/C=C\C/C=C\CCCCCCCC(=O)O [(Z,Z)-9,12-octadecadienoic acid] + CCCCCCCC/C=C\CCCCCCCC(=O)OCC(COC(=O)CCCCCCC/C=C\CCCCCCCC)OC(=O)CCCCCCC/C=C\CCCCCCCC
x1 = 0.7576
Settings | kinematic viscosity [m2/s]
303.15 K | 2.96e-05
313.15 K | 2.13e-05
323.15 K | 1.59e-05
333.15 K | 1.23e-05
343.15 K | 9.76e-06
353.15 K | 7.91e-06
363.15 K | 6.52e-06

CCCCC/C=C\C/C=C\CCCCCCCC(=O)OCC(COC(=O)CCCCCCC/C=C\C/C=C\CCCCC)OC(=O)CCCCCCC/C=C\C/C=C\CCCCC [trilinolein] + CCCCC/C=C\C/C=C\CCCCCCCC(=O)O
x2 = 0.7536
Settings | kinematic viscosity [m2/s]
303.15 K | 2.55e-05
313.15 K | 1.85e-05
323.15 K | 1.31e-05
333.15 K | 9.96e-06
343.15 K | 7.98e-06
353.15 K | 6.83e-06
363.15 K | 5.69e-06

CCCCC/C=C\C/C=C\CCCCCCCC(=O)OCC(COC(=O)CCCCCCC/C=C\C/C=C\CCCCC)OC(=O)CCCCCCC/C=C\C/C=C\CCCCC [trilinolein] + CCCCCCCC/C=C\CCCCCCCC(=O)O
x2 = 0.7564
Settings | kinematic viscosity [m2/s]
293.15 K | 4.14e-05
303.15 K | 2.82e-05
313.15 K | 2.07e-05
323.15 K | 1.48e-05
333.15 K | 1.15e-05
343.15 K | 9.32e-06
353.15 K | 7.62e-06
363.15 K | 6.38e-06
